According to patent EP1614420A2, “Treatment of hypertension, angina and other disorders using (-) amlodipine” (Sepracor Inc., priority 1992, dated 1993):

Key:
[1] = test system: β-adrenergic; conditions: L-form versus D-enantiomer; cited from earlier work
[2] = test system: potassium-depolarized rat aorta; conditions: in vitro; cited from earlier work
[3] = test system: K+-depolarized isolated guinea pig ileal segment; assay: Cardiovascular calcium antagonism, guinea pig ileum (in vitro); format: cell-based; conditions: inhibition of contractile response to added calcium (20 µg/ml of CaCl), Ca-free physiological salt solution, 37° C, reference agents; for IC100: Cavia porcellus, read-out: ED100
Text: Cardiovascular Calcium Antagonism, Guinea Pig Ileum (in vitro):

CC(C)NC[C@H](O)COc1cccc2ccccc12
times more potent than the D-enantiomer [1]: 100 times

CCOC(=O)C1=C(COCCN)NC(C)=C(C(=O)OC)C1c1ccccc1Cl (single isomer, unassigned; isomer 3) [(-) isomer, 3-ethyl 5-methyl (-)-2-[(2-aminoethoxy)methyl]-4-(2-chlorophenyl)-1,4-dihydro-6-methyl-3,5-pyridine-dicarboxylate]
activity relative to the racemic mixture in antagonizing calcium-induced constriction [2]: twice as active as the racemic mixture

C(=C\c1ccccc1)/CN1CCN(C(c2ccccc2)c2ccccc2)CC1 [cinnazrizine]
ED100 [3]: 1 µg/mL

CN1CCC(=C2c3ccccc3C=Cc3ccccc32)CC1 [cyproheptadine]
IC100 [3]: 0.025 µg/mL

CN(C)CCOC(c1ccccc1)c1ccccc1 [diphenhydramine]
IC100 [3]: 1 µg/mL

Fc1ccc(C(c2ccc(F)cc2)N2CCN(C/C=C/c3ccccc3)CC2)cc1 [flunarizine]
IC100 [3]: 0.1 µg/mL

CC(C)[N+]1(C)[C@@H]2CC[C@H]1CC(OC(=O)C(CO)c1ccccc1)C2.[Br-] (stereo partly shown) [ipratropium bromide]
ED100 [3]: >2 µg/mL

CC(COc1ccccc1)NC(C)C(O)c1ccc(O)cc1 (stereo not shown) [isoxuprine]
ED100 [3]: 4 µg/mL

COc1ccc(Cc2nccc3cc(OC)c(OC)cc23)cc1OC [papaverine]
IC100 [3]: 4 µg/mL

CC(CN1c2ccccc2Sc2ccccc21)N(C)C (stereo not shown) [promethazine]
IC100 [3]: 0.25 µg/mL
